Measurements published in patent US20060183888A1 (priority 2004, published 2006).

Experiments:
PylS-His6 [1] = target: T1, PylS-His6 (Methanosarcina barkeri, UniProt Q6WRH6)
Description: The pyrophosphate exchange reaction was essentially performed following the method of Cole and Schimmel. All reactions were performed in duplicate at 37° C. The 100 to 200 μl reactions contained (unless noted) 0.3 to […] PylSHis6. […] The specific activity of the radiolabel was adjusted from 4 to 10 dpm/pmol). The concentration of protein was 0.3 to 1 μM. At specific times, 25 μl aliquots were removed and quenched in 500 μl of a stop solution containing 1.6% (w/v) activated acid-washed charcoal (Sigma Chemical Co., St. Louis, Mo.), 80 mM sodium tetrapyrophosphate, and 3.5% (v/v) perchloric acid. Samples were filtered through Whatman GF/C glass-fiber filters and then the filter was washed three times with 5 ml of 40 mM sodium tetrasodium pyrophosphate solution containing 1.7% perchloric acid (v/v) and once with 5 ml 100% ethanol. Filters were dried at 80° C. for 5 minutes then placed in 20 ml scintillation vials containing 10 ml of Ultima Gold F scintillation cocktail (PerkinElmer), shaken once, and counted in a liquid scintillation analyzer. Identical reactions without amino acid, ATP, or enzyme were also set up as negative controls in duplicate. […] One substrate was kept constant at a concentration higher than its respective apparent Km value.

NMR H/D exchange studies = format: physicochemical
Description: Compound 7 (˜4 mg, ˜10 μmol) was dissolved in CD3OD (0.75 mL), and D2O (2 drops) was added. The reaction mixture was kept at rt and monitored by NMR (400 MHz). […] NaOD (30% w/w in D2O, 2 drops) was then added, and the solution monitored by NMR. […] After 25 h, the C5 proton peak completely disappeared.
To rule out the possibility that the loss of the C5 proton peak was due to decomposition, the resulting mixture was evaporated at rt under reduce pressure, and the residue was redissolved in CH3OH and allowed to stir for 1 day. The mixture was then evaporated to dryness in vacuo, and redissolved in CD3OD. The NMR spectrum was quickly taken, and the C5 proton peak was again observed. As before, the C5 proton peak slowly disappeared over a 1-day period.
To evaluate the importance of the imine bond on the acidity of the C5 proton, proline was dissolved in 0.75 mL CD3OD and 0.20 mL D2O and treated with […].

[2] = Stability studies to NaOH, LiOH, TFA (TLC); format: physicochemical
Description: Stability Studies of Compound (8) to NaOH. NaOH (6 M, 20 μL, 0.12 mmol) was added to a solution of compound 8 (0.15 M, 100 μL, 0.015 mmol). The resulting mixture was allowed to react at rt over 3 days, during which the degradation of compound 8 was monitored by a ninhydrin TLC assay (CHCl3—MeOH—NH4OH(aq)=2:2:1).
Stability Studies of Compound (8) to LiOH. Compound 8 (21.9 mg, 84 μmol) was dissolved in water (2 mL) and LiOH-H2O (84.5 mg, 2.0 mmol) was added. This mixture was allowed to react at rt. […] After 5 days, the solution was evaporated to dryness at rt, redissolved in MeOH (0.5 mL), and purified on chromatography silica gel.
Stability Studies of Compound (8) to TFA. Compound 8 (21.7 mg, 0.083 mmol) was dissolved in MeOH (2 mL) and TFA (200 μL) was added. […] The mixture was allowed to react to completion for 2 days at rt. The resulting mixture was evaporated to dryness, dissolved in MeOH (0.5 mL), and subjected to chromatography on silica gel.

His6-PylS = target: T2, His6-PylS (Methanosarcina barkeri, UniProt Q6WRH6); assay: Gel-shift aminoacylation assay with N-terminally His-tagged PylS; format: biochemical
T2 construct: His6 (hexahistidine) (N); made in house
Description: (§1) The reaction was terminated after 5-30 min at 37° C. with an equal volume of 0.3 M sodium acetate, 8 M urea pH 5.0. Charged and uncharged tRNA were separated by acid-urea acrylamide gel electrophoresis, blotted to nitrocellulose and probed with a 5μ ^32P-end-labelled, 72-base oligonucleotide complementary to tRNACUA. Radioactivity was analysed with a STORM Phosphorimager (Amersham Biosciences).
Aminoacylation assay in acid-urea gels. […] Following incubation at 37° C. for 5 to 30 minutes, the reaction was terminated by addition of an equal volume of 2× loading dye (0.3 M sodium acetate, 8 M urea, pH 5.0) and charged and uncharged tRNA species analysed by acid-urea acrylamide gel electrophoresis following the methods outlined in Jester et al. Samples were electrophoresed in 14% polyacrylamide gels buffered with a 0.3 M sodium acetate-7 M urea solution, pH 5.0, at 50 volts and 4° C. for 24 hours. The same buffer without urea was used in the electrode chambers, and was replaced with fresh buffer every 6-8 hours. Finished gels were transblotted for 2 hours at 40 volts in 4° C. in a blotting solution of 10 mM Tris-acetate, 5 mM sodium acetate, and 0.5 mM EDTA, pH 8.0. […] Radioactivity on the blot was imaged and analyzed using a STORM Phosphorimager (Amersham Biosciences).

[3] = system: E. coli BL21 (DE3) expressing pylT, pylS and mtmB1; assay: Pyrrolysine-dependent amber suppression (mtmB1 UAG readthrough, anti-MtmB immunoblot); format: cell-based; settings: 1 mM in the medium, induced 4 h
Description: To test for amber suppression, overnight cultures were grown in Luria-Bertani broth (3 ml) with 100 μg ml^−1 ampicillin. Subsequently, 200 μl was inoculated into 1 ml fresh medium and grown to a D600 of 0.6. […] The mtmB1 gene products in equivalent amounts of lysates were then analysed by immunoblotting of a SDS 12.5% polyacrylamide gel with affinity-purified rabbit anti-MtmB antibody^6. The Rainbow Molecular Weight markers (Amersham Biosciences) were used.
To test for amber suppression, overnight cultures of a strain bearing one of the plasmids were grown in LB broth (3 mL) with 100 ug/ml final ampicillin. Subsequently, 200 μl of each culture was inoculated into 1 ml of fresh LB medium with ampicillin, and grown to an A600 of approximately 0.6. […] The cultures were then centrifuged for 1 minute 16,000×g, and the cell pellets lysed in 125 mM Tris HCl, 4.6% SDS, 20% glycerol and 10% (v/v) β-mercaptoethanol, pH 6.8, at 90 degrees for 10 minutes.
Extracts were electrophoresed in a 12.5% SDS-PAGE gel, then electroblotted overnight at 150 mA onto PVDF membrane (Bio-Rad Labs, Hercules, Calif.). The membrane was then incubated for 1 hour at room temperature with Western Breeze blocking solution (Invitrogen). […]

PylS-His6 [4] = target: T1, PylS-His6; assay: Aminoacylation of tRNACUA, acid-urea gel shift and northern blot; format: biochemical; set-up: made in house; host or cells: E. coli BL21 (DE3)
Description: as §1
Aminoacylation assay in acid-urea gels. […] Following incubation at 37° C. for 5 to 30 minutes, the reaction was terminated by addition of an equal volume of 2× loading dye (0.3 M sodium acetate, 8 M urea, pH 5.0) and charged and uncharged tRNA species analysed by acid-urea acrylamide gel electrophoresis following the methods outlined in Jester et al. Samples were electrophoresed in 14% polyacrylamide gels buffered with a 0.3 M sodium acetate-7 M urea solution, pH 5.0, at 50 volts and 4° C. for 24 hours. The same buffer without urea was used in the electrode chambers, and was replaced with fresh buffer every 6-8 hours. Finished gels were transblotted for 2 hours at 40 volts in 4° C. in a blotting solution of 10 mM Tris-acetate, 5 mM sodium acetate, and 0.5 mM EDTA, pH 8.0. The blot was then cross-linked by ultraviolet radiation (15000 μJ/cm2 per side) then prehybrized in 0.25 M sodium phosphate buffer, pH 7.2, and 5.7% SDS for at least 30 minutes. In order to detect charged and uncharged tRNACUA a 72 base oligonucleotide complementary to full length of tRNACUA was labeled with γ-^32P ATP and polynucleotide kinase. The probe was hybridized with the blot overnight at room temperature, then agitated at 22° C. for 5 minute in 10 mM sodium citrate, 150 mM NaCl, 1% SDS, pH 7.0, then agitated with two changes of 5 mM sodium citrate, 75 mM sodium chloride, 1% SDS, pH 7.0, for 5 minutes each. Radioactivity on the blot was imaged and analyzed using a STORM Phosphorimager (Amersham Biosciences).

[5] = system: E. coli BW25141(DE3) with pylT, pylS and UAG-mutant uidA; format: cell-based
Excerpt: In order to avoid interference by the residue uidA gene, we employed a strain with most ofuidA deleted, E. coli BW25141(DE3). This strain was transformed with pDLGUS, a variant of the pEC03 plasmid in which the mtmB1 gene was removed and the uidA gene introduced in its place.

T1 sequence (Q6WRH6 whole entry): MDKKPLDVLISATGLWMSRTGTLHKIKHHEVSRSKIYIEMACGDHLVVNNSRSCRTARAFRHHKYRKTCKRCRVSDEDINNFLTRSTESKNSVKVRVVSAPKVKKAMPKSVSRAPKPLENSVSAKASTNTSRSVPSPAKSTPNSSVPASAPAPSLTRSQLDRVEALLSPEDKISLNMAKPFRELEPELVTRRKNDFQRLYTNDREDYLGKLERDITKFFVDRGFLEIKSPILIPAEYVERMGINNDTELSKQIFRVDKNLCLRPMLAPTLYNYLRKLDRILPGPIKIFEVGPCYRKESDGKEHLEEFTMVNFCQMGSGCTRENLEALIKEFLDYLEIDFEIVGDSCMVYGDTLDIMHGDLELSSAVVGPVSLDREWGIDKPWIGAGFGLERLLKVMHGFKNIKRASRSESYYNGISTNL
T2 sequence (Q6WRH6 whole entry): as above

Nc1ncnc2c1ncn2[C@@H]1O[C@H](COP(=O)(O)OP(=O)(O)OP(=O)(O)O)[C@@H](O)[C@H]1O [ATP]
Km (PylS-His6 [1]; read-out: apparent Km, 37° C., pH 7.2): 2 µM

COC(=O)[C@H](CCCCNC(=O)[C@@H]1N=CC[C@H]1C)NC(=O)C(F)(F)F [Compound 7, Nα-Trifluoroacetyl-L-pyrrolysine methyl ester]
change in NMR (NMR H/D exchange studies; CD3OD with D2O, rt, 3-day period): No change was observed | time to complete disappearance of the C5 proton peak (H/D exchange) (NMR H/D exchange studies; NaOD added, CD3OD/D2O): 25 h

C[C@@H]1CC=N[C@H]1C(=O)NCCCC[C@H](N)C(=O)[O-].[Li+] [Compound 8, L-Pyrrolysine lithium salt]
degradation by LiOH (TLC) ([2]; LiOH in water, rt, after 24 h): two new bands | degradation by NaOH (ninhydrin TLC) ([2]; NaOH, rt, over 3 days): One new band | degradation by TFA (TLC) ([2]; TFA in MeOH, after 1 h, complete in 2 days at rt): one new band

NCCCC[C@H](N)C(=O)O [lysine, reference compound]
tRNA synthetase activity (His6-PylS): no lysyl-tRNA synthetase activity was detectable | isotopic exchange into ATP above background (PylS-His6 [1]; 1 mM, up to 30 min): no detectable isotopic exchange | UAG readthrough of mtmB1 (50-kDa MtmB) [3]: could not be replaced | aminoacylation of tRNAIYS in the M. acetivorans tRNA pool (PylS-His6 [4]): does not aminoacylate | formation of charged tRNACUA species (PylS-His6 [4]; amino acids at 50 μM, cellular tRNA pool): not formed

O=C(O)[C@@H]1CCCN1 [proline, reference compound]
H/D exchange of protons on ring carbons (NMR H/D exchange studies; CD3OD/D2O with base, rt, 1 day): No evidence for H/D exchange

C[C@@H]1CC=N[C@H]1C(=O)NCCCC[C@H](N)C(=O)O [pyrrolysine, L-pyrrolysine]
tRNA synthetase activity (His6-PylS): does have pyrrolysyl-tRNA synthetase activity | apparent Vmax (PylS-His6 [1]; exchange reaction): 120 nmol min^−1 per mg PylS | UAG readthrough of mtmB1 (50-kDa MtmB) [3]: large amounts of 50-kDa MtmB | increase of beta-glucuronidase activity ([5]; 1 mM synthetic pyrrolysine versus absence of pyrrolysine): approximately 100 fold | beta-glucuronidase activity ([5]; induced with IPTG, 1 mM synthetic pyrrolysine): 4. umol/min·mg protein | conversion under acidic conditions ([2]; acidic conditions): converted to its enamine form | aminoacylation of tRNAIYS in the M. acetivorans tRNA pool (PylS-His6 [4]): does not aminoacylate | maximal conversion of deacylated tRNACUA to charged species (PylS-His6 [4]; deacylated M. acetivorans cellular tRNA pool, with ATP and PylS-His6): 50% | maximum of tRNACUA transcribed in vitro aminoacylated (PylS-His6 [4]; in vitro transcribed tRNACUA): 43%
